By EC50 is commonly meant the concentration at which the effect is half-maximal.

Assay type in all cases: cell-based
One experiment has as its target T1, ABCB4 WT (Homo sapiens, UniProt P21439).
T1 construct: expressed in transfected cells
The experiment can be described thus: ABCB4 WT assay: HiBit protein expression. The conditions noted are these: HEK-293 cells stably expressing HiBit-tagged ABCB4 WT; 24 h treatment; top concentration 30 μM; read-out: ABCB4 WT EC50, Emax. In a few lines:
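HEK-293 cells stably expressing HiBit-tagged human ABCB4 WT, treated 24 h at 37 °C with 11-dose 3-fold dilutions, top final 30 μM in 0.3% DMSO. HiBit lytic reagent luminescence read after 1 h at 25 °C; Emax and EC50 derived.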

Another experiment deals with T2, ABCA4 P1380L (Homo sapiens, UniProt P78363, P1380L).
T2 construct: expressed in transfected cells
The experiment can be described thus: A4 correction dose-response assay: ABCA4 P1380L HiBit protein expression. The conditions noted are these: HEK-293 cells stably expressing HiBit-tagged ABCA4 P1380L; 24 h treatment; top concentration 30 μM; read-out: ABCA4 P1380L EC50, Emax. In a few lines:
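Cells transfected with HiBit-tagged human ABCA4 P1380L cDNA were treated for 24 h at 37°C with an eleven-point dilution series (top final 30 μM, 0.3% DMSO).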
A general note: With HiBiT, luminescence reflects the tagged protein that the partner subunit can reach.

For the next experiment, the target named is T3, ABCC6 WT (Homo sapiens, UniProt O95255).
T3 construct: expressed in transfected cells; host or cells: HEK-293 (transient, Lipofectamine 2000)
Put plainly: ABCC6 WT assay: HiBit protein expression. The conditions noted are these: HEK-293 cells transiently expressing HiBit-tagged ABCC6 WT; 24 h treatment; top concentration 20 μM; read-out: ABCC6 WT EC50, Emax. In a few lines: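 HEK-293 cells transiently transfected with HiBit-tagged human ABCC6 WT cDNA, seeded 24 h post-transfection, treated 24 h at 37° C with ten 2-fold doses (top 20 μM final, 0.15% DMSO). HiBit lytic luminescence reports protein expression; Emax and EC50 derived.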

T3 sequence (O95255 whole entry): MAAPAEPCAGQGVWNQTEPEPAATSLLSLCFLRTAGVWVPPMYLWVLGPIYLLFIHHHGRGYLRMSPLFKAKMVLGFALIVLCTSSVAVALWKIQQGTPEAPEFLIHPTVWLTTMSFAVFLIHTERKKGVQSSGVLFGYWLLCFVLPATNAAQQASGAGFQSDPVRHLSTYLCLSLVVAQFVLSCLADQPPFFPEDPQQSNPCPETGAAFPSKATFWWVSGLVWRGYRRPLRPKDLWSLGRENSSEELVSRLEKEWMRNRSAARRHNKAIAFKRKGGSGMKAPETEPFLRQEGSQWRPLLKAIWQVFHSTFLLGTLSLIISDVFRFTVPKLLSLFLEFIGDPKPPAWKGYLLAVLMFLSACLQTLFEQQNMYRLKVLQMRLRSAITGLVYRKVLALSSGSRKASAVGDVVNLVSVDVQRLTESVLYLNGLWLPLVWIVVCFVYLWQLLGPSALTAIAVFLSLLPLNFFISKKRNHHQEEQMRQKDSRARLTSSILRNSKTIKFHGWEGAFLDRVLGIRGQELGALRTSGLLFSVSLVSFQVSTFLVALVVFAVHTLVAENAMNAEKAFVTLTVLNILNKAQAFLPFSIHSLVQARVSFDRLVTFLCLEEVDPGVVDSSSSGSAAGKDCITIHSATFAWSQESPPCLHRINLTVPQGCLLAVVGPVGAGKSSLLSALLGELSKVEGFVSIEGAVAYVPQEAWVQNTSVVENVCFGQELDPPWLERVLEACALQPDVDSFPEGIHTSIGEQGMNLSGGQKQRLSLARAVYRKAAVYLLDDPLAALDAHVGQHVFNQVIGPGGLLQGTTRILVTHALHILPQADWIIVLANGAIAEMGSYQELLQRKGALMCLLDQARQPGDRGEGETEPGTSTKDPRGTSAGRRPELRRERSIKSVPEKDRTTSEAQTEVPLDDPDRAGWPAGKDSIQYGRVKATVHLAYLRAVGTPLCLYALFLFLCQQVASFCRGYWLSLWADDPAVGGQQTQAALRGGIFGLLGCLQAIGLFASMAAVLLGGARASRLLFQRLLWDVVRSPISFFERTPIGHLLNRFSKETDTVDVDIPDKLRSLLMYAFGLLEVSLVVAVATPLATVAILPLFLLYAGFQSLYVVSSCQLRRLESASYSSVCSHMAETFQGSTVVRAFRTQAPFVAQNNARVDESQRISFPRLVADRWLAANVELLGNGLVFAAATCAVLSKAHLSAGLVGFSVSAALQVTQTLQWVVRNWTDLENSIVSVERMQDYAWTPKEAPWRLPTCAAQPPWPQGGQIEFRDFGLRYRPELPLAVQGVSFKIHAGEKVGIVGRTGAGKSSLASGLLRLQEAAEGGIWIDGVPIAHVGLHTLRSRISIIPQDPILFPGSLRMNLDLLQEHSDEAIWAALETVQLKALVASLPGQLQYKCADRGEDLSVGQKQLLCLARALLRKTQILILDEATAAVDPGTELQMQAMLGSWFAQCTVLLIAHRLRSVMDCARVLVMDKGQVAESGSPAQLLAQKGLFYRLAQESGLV
T2 sequence (P78363 whole entry P1380L): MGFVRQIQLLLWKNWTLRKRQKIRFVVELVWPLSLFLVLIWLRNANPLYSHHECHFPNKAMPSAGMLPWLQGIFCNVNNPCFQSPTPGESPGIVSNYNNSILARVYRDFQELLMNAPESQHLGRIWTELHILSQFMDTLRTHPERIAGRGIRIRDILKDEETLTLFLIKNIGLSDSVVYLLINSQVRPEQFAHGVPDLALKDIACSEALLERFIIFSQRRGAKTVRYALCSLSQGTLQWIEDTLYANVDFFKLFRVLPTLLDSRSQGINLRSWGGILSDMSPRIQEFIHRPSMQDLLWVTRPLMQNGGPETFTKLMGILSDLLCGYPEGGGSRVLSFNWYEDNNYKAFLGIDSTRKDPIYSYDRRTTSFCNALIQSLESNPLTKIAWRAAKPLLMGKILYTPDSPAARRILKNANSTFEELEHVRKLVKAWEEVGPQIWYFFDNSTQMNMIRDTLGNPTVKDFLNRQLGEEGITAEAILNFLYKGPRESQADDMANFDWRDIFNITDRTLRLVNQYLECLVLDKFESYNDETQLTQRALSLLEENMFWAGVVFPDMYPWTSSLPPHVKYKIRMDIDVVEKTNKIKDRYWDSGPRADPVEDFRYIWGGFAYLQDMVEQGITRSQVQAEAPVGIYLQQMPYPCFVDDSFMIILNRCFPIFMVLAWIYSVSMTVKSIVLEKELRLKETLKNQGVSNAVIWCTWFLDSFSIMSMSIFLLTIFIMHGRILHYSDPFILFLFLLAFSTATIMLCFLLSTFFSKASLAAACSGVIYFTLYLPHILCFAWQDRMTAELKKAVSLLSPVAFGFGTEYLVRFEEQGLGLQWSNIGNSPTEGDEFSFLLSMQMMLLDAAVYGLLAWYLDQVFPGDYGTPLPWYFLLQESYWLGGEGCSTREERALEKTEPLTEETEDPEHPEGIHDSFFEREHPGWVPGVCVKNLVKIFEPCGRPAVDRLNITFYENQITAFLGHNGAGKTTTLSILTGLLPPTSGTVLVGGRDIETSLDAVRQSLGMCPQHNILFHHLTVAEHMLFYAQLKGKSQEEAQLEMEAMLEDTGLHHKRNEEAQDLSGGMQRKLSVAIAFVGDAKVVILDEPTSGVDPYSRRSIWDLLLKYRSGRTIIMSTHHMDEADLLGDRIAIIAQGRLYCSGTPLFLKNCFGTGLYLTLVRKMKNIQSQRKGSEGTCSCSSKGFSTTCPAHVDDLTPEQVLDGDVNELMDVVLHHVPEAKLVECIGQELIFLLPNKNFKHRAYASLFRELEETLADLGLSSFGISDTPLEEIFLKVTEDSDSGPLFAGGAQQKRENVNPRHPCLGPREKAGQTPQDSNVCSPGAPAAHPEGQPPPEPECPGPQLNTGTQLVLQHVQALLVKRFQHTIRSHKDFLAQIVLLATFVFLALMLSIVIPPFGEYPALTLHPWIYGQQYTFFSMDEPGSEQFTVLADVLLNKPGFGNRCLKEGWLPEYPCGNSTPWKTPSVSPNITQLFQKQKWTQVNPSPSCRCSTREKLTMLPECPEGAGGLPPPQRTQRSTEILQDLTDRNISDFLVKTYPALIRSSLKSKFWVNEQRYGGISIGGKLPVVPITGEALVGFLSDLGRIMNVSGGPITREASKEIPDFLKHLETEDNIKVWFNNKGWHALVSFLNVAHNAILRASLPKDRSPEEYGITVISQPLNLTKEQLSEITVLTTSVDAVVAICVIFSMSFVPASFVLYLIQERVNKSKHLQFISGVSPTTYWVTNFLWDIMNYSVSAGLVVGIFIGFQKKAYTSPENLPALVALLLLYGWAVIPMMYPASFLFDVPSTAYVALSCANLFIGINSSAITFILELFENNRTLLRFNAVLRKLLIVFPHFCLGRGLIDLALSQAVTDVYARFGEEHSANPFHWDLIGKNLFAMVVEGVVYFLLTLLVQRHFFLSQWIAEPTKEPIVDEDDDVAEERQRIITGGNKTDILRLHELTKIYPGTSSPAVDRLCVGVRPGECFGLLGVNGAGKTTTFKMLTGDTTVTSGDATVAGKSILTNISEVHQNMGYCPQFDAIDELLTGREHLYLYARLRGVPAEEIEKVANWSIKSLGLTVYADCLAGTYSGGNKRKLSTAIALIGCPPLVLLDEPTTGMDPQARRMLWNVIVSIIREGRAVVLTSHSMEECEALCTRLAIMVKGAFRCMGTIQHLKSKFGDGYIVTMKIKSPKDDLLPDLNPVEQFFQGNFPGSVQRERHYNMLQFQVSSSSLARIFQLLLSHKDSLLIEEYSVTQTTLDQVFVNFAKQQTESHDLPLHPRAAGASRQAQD
T1 sequence (P21439 whole entry): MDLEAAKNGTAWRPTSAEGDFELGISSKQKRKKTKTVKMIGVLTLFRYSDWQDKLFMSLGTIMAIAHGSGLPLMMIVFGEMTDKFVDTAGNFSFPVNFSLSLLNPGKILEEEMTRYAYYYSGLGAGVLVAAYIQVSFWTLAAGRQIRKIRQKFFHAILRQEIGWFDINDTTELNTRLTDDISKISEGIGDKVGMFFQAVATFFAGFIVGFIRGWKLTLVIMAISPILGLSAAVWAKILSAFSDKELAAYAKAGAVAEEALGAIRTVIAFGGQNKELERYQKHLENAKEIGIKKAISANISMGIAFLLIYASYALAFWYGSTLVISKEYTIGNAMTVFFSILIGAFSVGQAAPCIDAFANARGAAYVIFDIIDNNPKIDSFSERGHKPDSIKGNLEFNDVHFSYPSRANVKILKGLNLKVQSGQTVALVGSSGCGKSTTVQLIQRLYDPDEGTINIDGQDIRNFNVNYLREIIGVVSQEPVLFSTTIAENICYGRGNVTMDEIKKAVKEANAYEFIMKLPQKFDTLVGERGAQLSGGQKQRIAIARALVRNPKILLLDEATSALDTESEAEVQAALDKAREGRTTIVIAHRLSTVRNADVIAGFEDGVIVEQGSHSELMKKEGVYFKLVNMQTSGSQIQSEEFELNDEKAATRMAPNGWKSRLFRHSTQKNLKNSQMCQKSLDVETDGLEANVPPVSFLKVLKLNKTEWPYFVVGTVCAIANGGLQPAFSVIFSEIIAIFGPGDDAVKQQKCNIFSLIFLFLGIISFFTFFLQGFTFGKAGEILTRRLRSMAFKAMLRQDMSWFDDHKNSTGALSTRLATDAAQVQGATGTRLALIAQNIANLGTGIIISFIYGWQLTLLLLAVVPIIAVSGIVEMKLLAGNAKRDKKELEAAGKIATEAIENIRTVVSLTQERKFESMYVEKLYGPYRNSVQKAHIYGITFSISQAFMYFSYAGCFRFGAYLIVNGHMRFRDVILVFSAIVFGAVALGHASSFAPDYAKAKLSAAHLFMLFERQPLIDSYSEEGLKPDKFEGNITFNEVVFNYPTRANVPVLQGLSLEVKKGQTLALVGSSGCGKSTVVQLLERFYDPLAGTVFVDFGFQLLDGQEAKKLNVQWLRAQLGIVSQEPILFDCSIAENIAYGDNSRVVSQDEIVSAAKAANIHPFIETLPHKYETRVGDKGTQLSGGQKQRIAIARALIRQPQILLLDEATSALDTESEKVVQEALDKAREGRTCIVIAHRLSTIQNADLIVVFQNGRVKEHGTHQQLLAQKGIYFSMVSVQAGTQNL

`Cc1cc(C)c(Oc2nc(-c3cncc(Cl)c3)ccc2S(=O)(=O)NCc2ccccn2)c(C2CC2)c1` [Compound I-76]: the EC50 at ABCB4 WT was 1 to 10 µM; on ABCA4 P1380L, more than 25 µM; at ABCC6 WT, not below 25 µM.
For `CNS(=O)(=O)c1ccc(-c2cncc(Cl)c2)nc1Oc1c(C)cc(C)cc1C1CC1` [Compound I-77], the figures for the EC50 at ABCB4 WT, at ABCA4 P1380L and at ABCC6 WT were 1 to 10 µM, less than 25 µM and less than 1 µM, respectively.
The corresponding values for `COC1CC(NS(=O)(=O)c2ccc(-c3cncc(Cl)c3)nc2Oc2c(C)cc(C)cc2C)C1` (stereo not drawn) [Compound I-78] are less than 25 µM, 1 to 10 µM and less than 1 µM.
In the case of `Cc1cc(C)c(Oc2nc(-c3cncc(Cl)c3)ccc2S(=O)(=O)N[C@H](c2ccccc2)C(F)(F)F)c(C)c1` [Compound I-81], the EC50 at ABCB4 WT is less than 25 µM; at ABCA4 P1380L, 1 to 10 µM; at ABCC6 WT, 1 to 10 µM.
In the case of `Cc1cc(C)c(Oc2nc(-c3cncc(Cl)c3)ccc2S(=O)(=O)N[C@@H](c2ccccc2)C(F)(F)F)c(C)c1` [Compound I-83], the EC50 is not below 25 µM on ABCB4 WT, 1 to 10 µM at ABCA4 P1380L and 1 to 10 µM at ABCC6 WT.
Turning to `CNS(=O)(=O)c1cnc(-c2cncc(Cl)c2)cc1Oc1c(C)cc(C)cc1C` [Compound I-84], the EC50 was not below 25 µM on ABCB4 WT, less than 25 µM at ABCA4 P1380L and not below 25 µM at ABCC6 WT.
On to `Cc1cc(C)c(Oc2nc(-c3cncc(Cl)c3)ccc2S(=O)(=O)N(C)Cc2ccccc2)c(C)c1` [Compound I-85], for which the EC50 at ABCB4 WT was less than 25 µM; on ABCA4 P1380L, more than 25 µM; at ABCC6 WT, not below 25 µM.
The corresponding values for `Cc1cc(C)c(Oc2nc(-c3cncc(Cl)c3)ccc2S(=O)(=O)NCc2ccccn2)c(C)c1` [Compound I-86] are 1 to 10 µM, less than 25 µM and 1 to 10 µM.
For `Cc1cc(C)c(Oc2nc(-c3cncc(Cl)c3)ccc2S(=O)(=O)NCc2cc(C(F)(F)F)ccn2)c(C)c1` [Compound I-87], the EC50 on ABCB4 WT is 1 to 10 µM; on ABCA4 P1380L it was more than 25 µM; on ABCC6 WT, 1 to 10 µM.
For `Cc1cc(C)c(Oc2nc(-c3cncc(Cl)c3)ccc2S(=O)(=O)NCc2ccccc2)c(C)c1` [Compound I-88], the EC50 is less than 25 µM on ABCB4 WT, 1 to 10 µM on ABCA4 P1380L and 1 to 10 µM at ABCC6 WT.
As to `CNS(=O)(=O)c1ncc(-c2cncc(Cl)c2)nc1Oc1c(C)cc(C)c(Cl)c1C` [Compound I-89], the EC50 is 1 to 10 µM on ABCB4 WT, more than 25 µM on ABCA4 P1380L and less than 25 µM at ABCC6 WT.
The like results for `Cc1cc(C)c(Oc2nc(-c3cncc(Cl)c3)cnc2S(N)(=O)=O)c(C)c1Cl` [Compound I-90] were, in that order, 1 to 10 µM, 1 to 10 µM and less than 1 µM.
In the case of `CNS(=O)(=O)c1ccc(N2CCN(C)C(=O)C2)nc1Oc1c(C)cc(C)cc1C` [Compound I-92], the 50% effective concentration (EC50) on ABCB4 WT is not below 25 µM; at ABCA4 P1380L, more than 25 µM; at ABCC6 WT, 1 to 10 µM.
Take `Cc1cc(C)c(Oc2nc(-c3cncc(Cl)c3)ncc2S(N)(=O)=O)c(C)c1Cl` [Compound I-93]: the concentration giving a half-maximal response (EC50) at ABCB4 WT was not below 25 µM; at ABCA4 P1380L, 1 to 10 µM; at ABCC6 WT, less than 25 µM.
The corresponding values for `Cc1cc(C)c(Oc2nc(-c3cncc(Cl)c3)ccc2S(=O)(=O)Nc2cnn(C)c2)c(C)c1` [Compound I-94] are 1 to 10 µM, 1 to 10 µM and 1 to 10 µM.
